Source: patent publication EP4789666A1, “RNA M6A REGULATOR COMPOSITION, PREPARATION METHOD THEREFOR, AND USE THEREOF” (SHANGHAI MERNA THERAPEUTICS CO. LTD, priority 2023, dated 2025)
Each block holds one compound with its values, some of them ahead of it.

Assays:
[1] = tested on: rat models with hand-foot skin reaction; experiment: Rat models with hand-foot skin reaction, topical ointment (incidence rate, histology, immunohistochemistry); format: in vivo, SD rats; details: for Incidence rate, left paw / Incidence rate, right paw: modeling drug alone by gavage once daily 30 days (sorafenib 100, erlotinib 70, afatinib 50, osimertinib 60 mg/kg), no compound in ointment; for successful modeling rates for the hand-foot skin reaction: once daily by gavage at 100, 70, 50 and 60 mg/kg (sorafenib, erlotinib, afatinib, osimertinib), SD rats
Experimental: After adaptive feeding for one week, SD rats (with a body weight of approximately 200 g) were randomly divided into groups with balanced body weight, with 12 rats in each group. Modeling drugs (including sorafenib, erlotinib, afatinib, and osimertinib) were respectively dissolved in a solution containing 5% of DMSO, 45% of PEG400, and 50% of H2O, and the modeling drugs were diluted to required concentrations and then administered once daily by gavage at doses shown in Table 3. After administration by gavage for 1 hour, 0.05 g of ointments containing different mass proportions of test compounds were evenly applied to left paws of the rats, a blank matrix ointment was applied to right paws of the rats to serve as a self-control, and no ointment was applied to the rats in a blank control group. After drug application, four limbs were continuously immobilized for 2 hours, then wiped with clean water to remove the residual drugs, removed from immobilization, and restored to free movement. The modeling drugs, the blank matrix ointment, and the ointments containing the test compounds were all administered once daily. After continuous administration for 30 days, the rats were euthanized, and paw plantar skin tissues were collected, fixed in 10% neutral formalin, […]. The ointments for the test compounds were prepared by mixing the compounds, white beeswax, white petrolatum, and light liquid paraffin in specific ratios (weight ratios of 3 ointments were respectively 1:18:58:23, 3:18:57:22, and 10:20:40:30). The blank matrix ointment was prepared by mixing white beeswax, white petrolatum, and light liquid paraffin in a specific ratio (weight ratio of 18:60:22).
Tissue staining: After dewaxing and rehydration, the paw plantar skin tissue sections of the above rats were stained in a hematoxylin solution for several minutes, cleaned, and placed in 1% acid alcohol for soaking until the sections faded to light blue-red. After cleaning with running water for 5 minutes, the sections were stained with eosin for 2-3 minutes, cleaned to remove excess dyes, dehydrated, then permeabilized by adding xylene for several minutes, and sealed and fixed with a neutral resin. The stratum corneum was observed under an optical microscope, and the thickness of the epidermal stratum corneum was measured using Dmetrix software.
Immunohistochemical staining: After dewaxing and hydration, the paw plantar skin tissue sections of the above rats were incubated with 3% H2O2 at room temperature for 30 minutes and blocked with 10% goat serum for 30 minutes after antigen retrieval. A KRT1 antibody (Abcam, ab93652) and a Loricrin antibody (Abcam, ab183646) were added dropwise, the sections were incubated overnight at 4°C, and an HRP secondary antibody (ZSGB-BIO, PV-6001) and a DAB kit (ZSG-BIO, ZLI9017) were added for color development. The sections were re-stained with hematoxylin, cleaned, and sealed and fixed with a neutral resin, and the expression amounts of KRT1 and Loricrin were observed under an optical microscope.
An incidence rate calculation method involves a proportion of animals in each group meeting the above criteria for determining successful modeling, that is, incidence rate = (number of successfully modeled rats/total number of rats in the group)*100%. […]

[2] = tested on: kinase inhibitor-induced mouse model with hand-foot skin reaction; experiment: Kinase inhibitor-induced mouse model with hand-foot skin reaction; format: in vivo, ICR mice; details: for degree of swelling of the hind limb toes of the mice: continuous oral administration of modeling drug for 14 days; for epidermal layer and stratum corneum in the skin tissues of the hind limb toes: modeling drug oral for 14 days versus normal control group, pathological staining; for skin of the hind limb toes of the mice (appearance): modeling for 14 days (sorafenib 100 mg/kg, osimertinib 10 mg/kg oral), versus normal control group; for cytokine IL-1β in the skin tissues of the hind limb toes: immunohistochemistry, p<0.05
Excerpt: After adaptive feeding for 7 days, SPF-grade ICR mice (male, 5-6 weeks old, with a body weight of approximately 35 g) were randomly divided into groups, including a blank control group (6 mice), a sorafenib modeling group (6 mice), an osimertinib modeling group (6 mice), a sorafenib + compound of formula (I) group (6 mice), an osimertinib + compound of formula (I) group (6 mice), a sorafenib + nicotinamide group (6 mice), and an osimertinib + nicotinamide group (6 mice). The groups were respectively administered corresponding modeling drugs by oral gavage (sorafenib at 100 mg/kg and osimertinib at 10 mg/kg) once daily; and the blank control group was administered an equivalent volume of normal saline. After administration with the chemotherapeutic drugs for 2 weeks, the ointments containing the compound of formula (I) (at a compound content of 3%) used in Example 10 were respectively applied topically in the groups, or nicotinamide was orally administered (100 mg/kg) once daily continuously for 16 days.
(§1) Measurement of the degree of swelling of toes: The degree of swelling of hind limb toes of the mice was measured using a toe swelling tester (KW-7C, Nanjing Calvin Biotechnology Co., Ltd.) before administration with the modeling drugs, after administration with the modeling drugs for 2 weeks, and before sacrifice, respectively. Before measurement, ankle joints of hind feet of the mice were marked at same positions before administration, after administration for 2 weeks, and before sacrifice. During measurement, water was properly located at the same level as the marked positions, and numerical values were recorded after becoming stable.
(§2) Pathological staining of skin tissues: Skin tissue samples were selected from hind limb toes of the mice and placed in 4% paraformaldehyde for fixation at room temperature for 4 hours. Then, the tissues were taken out and rinsed with running water for several hours. The samples were subjected to dehydration treatment with 70%, 80%, and 90% ethanol solutions, followed by treatment with a mixed solution of equal amounts of absolute alcohol and xylene for 15 minutes, and then permeabilized twice with a xylene solution for 15 minutes each time until the samples became transparent. The samples were placed in a mixture of half xylene and half paraffin for soaking for 15 minutes, and then, paraffin I and paraffin II were added for wax penetration for one hour, respectively. After embedding with paraffin, the samples were sectioned, baked, dewaxed, and hydrated. Then, the hydrated sections were placed in a hematoxylin solution (ZSGB-BIO, article No. 23041001) for staining for 3 minutes, and a differentiation solution of hydrochloric acid in ethanol was added for differentiation for 15 seconds. After rinsing with water, a Scott bluing solution (Servicebio, article No. 20230801) was added for bluing for 15 seconds. After rinsing with running water, the sections were stained with an eosin solution (Solarbio, article No. 33535) for 3 minutes, rinsed with running water, dehydrated, permeabilized, sealed, and inspected under a microscope.
(§3) Immunohistochemical staining: After baking, dewaxing, and hydration, paraffin sections of skin tissues of hind limb toes of the mice were subjected to antigen retrieval using a 0.2 M citric acid buffer solution (containing 1.534 g of citric acid, 3.1 g of sodium citrate, and 100 mL of distilled water, pH 4.7). Endogenous […] was removed using 3% hydrogen peroxide (Shandong Annjet High-Tech Disinfection Technology Co., Ltd., article No. 20290902), and the sections were incubated at room temperature for 10 minutes and then fully rinsed with a PBS buffer solution (containing 8 g of NaCl, 0.2 g of KCl, 1.44 g of Na2HPO4, and 1 M HCl, pH 7.4). The sections were permeabilized with 0.5% Triton-X-100 (AmyJet Scientific, article No. A-CSH436-100 mL), respectively permeabilized with mouse anti-IL-1β and rabbit IL-8 for 10 minutes, and not permeabilized with rabbit anti-IL-6. […]

[3] = tested on: chemotherapeutic drug-induced mouse model with hand-foot syndrome; experiment: Chemotherapeutic drug-induced mouse model with hand-foot syndrome; format: in vivo, ICR mice; details: for degree of swelling of the hind limb toes of the mice: continuous oral administration of modeling drug for 14 days; for epidermal layer and stratum corneum in the skin tissues of the hind limb toes: modeling drug oral for 14 days versus normal control group, pathological staining; for skin of the hind limb toes of the mice (appearance): modeling for 14 days (capecitabine 200 mg/kg, docetaxel 25 mg/kg oral), versus normal control group
Excerpt: After adaptive feeding for 7 days, SPF-grade ICR mice (male, 5-6 weeks old, with a body weight of approximately 35 g) were randomly divided into groups, including a blank control group (6 mice), a capecitabine modeling group (6 mice), a docetaxel modeling group (6 mice), a capecitabine + compound of formula (I) group (6 mice), a docetaxel + compound of formula (I) group (6 mice), a capecitabine + nicotinamide group (6 mice), and a docetaxel + nicotinamide group (6 mice). The groups were respectively administered corresponding modeling drugs by oral gavage (capecitabine at 200 mg/kg and docetaxel at 25 mg/kg) once daily; and the blank control group was administered an equivalent volume of normal saline. After administration with the chemotherapeutic drugs for 2 weeks, the ointments containing the compound of formula (I) (at a compound content of 3%) used in Example 10 were respectively applied topically in the groups, or nicotinamide was orally administered (100 mg/kg) once daily continuously for 16 days.
as §1, §2, §3

[4] = immunohistochemical staining, successfully modeled rats
[5] = successfully modeled rats versus normal rats, FIG. 8
[6] = capecitabine and docetaxel models, 3% ointment topical or nicotinamide 100 mg/kg oral, once daily 16 days
[7] = sorafenib and osimertinib models, 3% ointment topical or nicotinamide 100 mg/kg oral, once daily 16 days

Compound: C#Cc1cccc(Nc2ncnc3cc(OCCOC)c(OCCOC)cc23)c1 [Erlotinib, erlotinib, reference compound]
KRT1 and Loricrin in tissues ([1]; rat, in vivo): significantly increased
stratum corneum thickness of the paw plantar skin ([1]; rat, in vivo): significantly higher

degree of swelling of the hind limb toes of the mice [2]: significant swelling
epidermal layer and stratum corneum in the skin tissues of the hind limb toes [2]: significantly thickened
skin of the hind limb toes of the mice (appearance) [2]: obvious erythema and rhagades
cytokine IL-1β in the skin tissues of the hind limb toes ([2]; sorafenib oral for 14 days versus normal control group): significantly increased
Compound: CNC(=O)c1cc(Oc2ccc(NC(=O)Nc3ccc(Cl)c(C(F)(F)F)c3)cc2)ccn1 [Sorafenib, sorafenib, reference compound]
KRT1 and Loricrin in tissues [1, 4]: significantly increased
Incidence rate, left paw [1]: 9/12 (75%)
Incidence rate, right paw [1]: 9/12 (75%)
successful modeling rates for the hand-foot skin reaction [1]: 75%
stratum corneum thickness of the paw plantar skin [1, 5]: significantly higher

degree of swelling of the hind limb toes of the mice [2]: significant swelling
epidermal layer and stratum corneum in the skin tissues of the hind limb toes [2]: significantly thickened
skin of the hind limb toes of the mice (appearance) [2]: obvious erythema and rhagades
cytokine IL-1β in the skin tissues of the hind limb toes ([2]; osimertinib oral for 14 days versus normal control group): significantly increased
Compound: C=CC(=O)Nc1cc(Nc2nccc(-c3cn(C)c4ccccc34)n2)c(OC)cc1N(C)CCN(C)C [Osimertinib, osimertinib]
KRT1 and Loricrin in tissues ([1]; rat, in vivo): significantly increased
stratum corneum thickness of the paw plantar skin ([1]; rat, in vivo): significantly higher

Compound: NC(=O)c1cccnc1 [Nicotinamide, nicotinamide]
swelling of the toes caused by the modeling drugs [3, 6]: it was not observed that oral administration of the nicotinamide at 100 mg/kg significantly alleviated the swelling
thickening of the epidermal layer and the stratum corneum in the skin tissues [3, 6]: mildly alleviated
expression level of cytokine IL-8 in the skin tissues of the hind limb toes ([3]; capecitabine model, 3% ointment topical or nicotinamide 100 mg/kg oral): didn't have a significant impact
expression level of cytokine IL-6 in the skin tissues of the hind limb toes ([3]; docetaxel model, 3% ointment topical or nicotinamide 100 mg/kg oral): didn't have a significant impact
expression level of cytokine IL-1β in the skin tissues of the hind limb toes ([2]; osimertinib model, 3% ointment topical or nicotinamide 100 mg/kg oral): didn't have a significant impact
swelling of the toes caused by the modeling drugs [2, 7]: it was not observed that oral administration of the nicotinamide at 100 mg/kg significantly alleviated the swelling
thickening of the epidermal layer and the stratum corneum in the skin tissues [2, 7]: didn't significantly alleviate
expression level of cytokine IL-1β in the skin tissues of the hind limb toes ([2]; sorafenib model, 3% ointment topical or nicotinamide 100 mg/kg oral): didn't have a significant impact

cytokine IL-6 in the skin tissues of the hind limb toes ([3]; docetaxel oral for 14 days versus normal control group, immunohistochemistry, p<0.05): significantly increased
epidermal layer and stratum corneum in the skin tissues of the hind limb toes [3]: significantly thickened
skin of the hind limb toes of the mice (appearance) [3]: obvious erythema, rhagades, and blisters
Compound: CC(=O)O[C@@]12CO[C@@H]1C[C@H](O)[C@@]1(C)C(=O)[C@H](O)C3=C(C)[C@@H](OC(=O)[C@H](O)[C@@H](NC(=O)OC(C)(C)C)c4ccccc4)C[C@@](O)([C@@H](OC(=O)c4ccccc4)[C@H]21)C3(C)C [Docetaxel, docetaxel]
degree of swelling of the hind limb toes of the mice [3]: swelling of the hind limb toes of the mice was caused

Compound: CN(C)C/C=C/C(=O)Nc1cc2c(Nc3ccc(F)c(Cl)c3)ncnc2cc1O[C@H]1CCOC1 [Afatinib, afatinib, reference compound]
KRT1 and Loricrin in tissues [1, 4]: significantly increased
Incidence rate, left paw [1]: 8/12 (66.7%)
Incidence rate, right paw [1]: 8/12 (66.7%)
successful modeling rates for the hand-foot skin reaction [1]: 66.7%
stratum corneum thickness of the paw plantar skin [1, 5]: significantly higher

cytokine IL-8 in the skin tissues of the hind limb toes ([3]; capecitabine oral for 14 days versus normal control group, immunohistochemistry, p<0.05): significantly increased
epidermal layer and stratum corneum in the skin tissues of the hind limb toes [3]: significantly thickened
skin of the hind limb toes of the mice (appearance) [3]: obvious erythema, rhagades, and blisters
Compound: CCCCCOC(=O)Nc1nc(=O)n([C@@H]2O[C@H](C)[C@@H](O)[C@H]2O)cc1F [Capecitabine, capecitabine]
degree of swelling of the hind limb toes of the mice [3]: swelling of the hind limb toes of the mice was caused
